# Test results taken from ChEMBL document CHEMBL1157574 (J Med Chem, 2010).
# Experiments:
# Rattus norvegicus [1] = assay: Inhibition of steroid sulfatase in PMSG-pretreated Wistar rat liver at 0.1 mg/kg, po administered after 3 days of PMSG challenge by liquid scintillation spectrometry
# Rattus norvegicus [2] = assay: Inhibition of aromatase in PMSG-pretreated Wistar rat plasma at 0.1 mg/kg, po administered after 3 days of PMSG challenge by radioimmunoassay; format: functional
# Rattus norvegicus [3] = assay: Inhibition of aromatase in Wistar rat assessed as inhibition of PMSG-induced plasma E2 level at 0.1 mg/kg, po administered after 3 days of PMSG challenge by radioimmunoassay; format: functional
# Steryl-sulfatase = target: T1, Steryl-sulfatase (Homo sapiens, UniProt P08842); assay: Inhibition of steroid sulfatase in human JEG3 cells by scintillation spectrometry; format: cell-based, JEG-3
# T1 sequence (P08842 whole entry): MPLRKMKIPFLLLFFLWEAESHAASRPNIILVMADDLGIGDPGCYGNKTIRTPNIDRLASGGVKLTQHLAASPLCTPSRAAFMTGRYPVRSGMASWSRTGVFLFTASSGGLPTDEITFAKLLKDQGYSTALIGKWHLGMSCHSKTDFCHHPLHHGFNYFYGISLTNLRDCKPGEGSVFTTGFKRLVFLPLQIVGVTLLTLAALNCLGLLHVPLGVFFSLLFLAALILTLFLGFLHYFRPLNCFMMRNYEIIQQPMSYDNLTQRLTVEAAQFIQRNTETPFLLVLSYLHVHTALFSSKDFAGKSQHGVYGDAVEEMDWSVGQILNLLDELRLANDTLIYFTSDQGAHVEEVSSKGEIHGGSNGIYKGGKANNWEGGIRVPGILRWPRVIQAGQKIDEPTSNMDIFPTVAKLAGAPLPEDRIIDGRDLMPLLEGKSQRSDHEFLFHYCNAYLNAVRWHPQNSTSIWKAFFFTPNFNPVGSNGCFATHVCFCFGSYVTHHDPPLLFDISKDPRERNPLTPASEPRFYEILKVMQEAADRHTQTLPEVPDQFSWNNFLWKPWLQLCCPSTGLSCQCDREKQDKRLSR
# Aromatase [4] = target: T2, Aromatase (Homo sapiens, UniProt P11511)
# T2 sequence (P11511 whole entry): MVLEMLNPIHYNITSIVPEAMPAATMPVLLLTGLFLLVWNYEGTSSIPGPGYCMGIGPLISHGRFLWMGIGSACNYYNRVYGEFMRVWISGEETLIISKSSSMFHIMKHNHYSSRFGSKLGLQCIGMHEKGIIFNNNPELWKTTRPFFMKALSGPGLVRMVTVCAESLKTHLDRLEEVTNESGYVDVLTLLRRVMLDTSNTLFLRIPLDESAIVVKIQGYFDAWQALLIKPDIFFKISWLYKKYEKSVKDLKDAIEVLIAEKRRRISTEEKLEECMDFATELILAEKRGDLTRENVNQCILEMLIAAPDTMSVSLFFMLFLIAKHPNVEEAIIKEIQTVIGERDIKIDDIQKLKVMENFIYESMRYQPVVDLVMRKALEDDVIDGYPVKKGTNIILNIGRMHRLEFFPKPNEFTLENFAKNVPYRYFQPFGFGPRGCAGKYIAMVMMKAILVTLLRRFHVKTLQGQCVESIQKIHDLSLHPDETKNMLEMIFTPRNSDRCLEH
# Description: Inhibition of aromatase in human JEG3 cells by scintillation spectrometry
# Rattus norvegicus [5] = assay: Estrogenic toxicity in Wistar rat assessed as increase in uterine weight at 10 mg/kg, po for 4 days; format: organism-based; parameters: dose 10 mg/kg, route oral; details: in vivo, 96 h
# Aromatase [6] = target: T2, Aromatase; assay: Inhibition of aromatase in human JEG3 cells at 0.1 uM by scintillation spectrometry; format: cell-based; details: JEG-3, human
# Aromatase [7] = target: T2, Aromatase; assay: Inhibition of aromatase in human JEG3 cells at 1 uM by scintillation spectrometry; format: cell-based, JEG-3; details: for inhibition (INH): human, jeg-3, 1 µM
# Aromatase [8] = target: T2, Aromatase; assay: Inhibition of aromatase in human JEG3 cells at 10 uM by scintillation spectrometry; format: cell-based; details: JEG-3, human
# [9] = target: T3, Steryl-sulfatase (Homo sapiens) (UniProt P08842); assay: Inhibition of steroid sulfatase in human JEG3 cells at 10 uM by scintillation spectrometry; format: cell-based; details: JEG-3
# T3 sequence (whole entry): T1 sequence (P08842 whole entry)
# Rattus norvegicus [10] = assay: Inhibition of aromatase in PMSG-pretreated Wistar rat at 1 mg/kg, po administered after 3 days of PMSG challenge by radioimmunoassay
# Rattus norvegicus [11] = assay: Inhibition of aromatase in Wistar rat assessed as inhibition of PMSG-induced plasma E2 level at 1 mg/kg, po administered after 3 days of PMSG challenge by radioimmunoassay; format: functional
# Rattus norvegicus [12] = assay: Inhibition of steroid sulfatase in PMSG-pretreated Wistar rat at 1 mg/kg, po administered after 3 days of PMSG challenge by liquid scintillation spectrometry; format: functional
Compound,IC50 (Steryl-sulfatase) [nM],IC50 (Aromatase [4]) [nM],also measured
N#Cc1ccc(C(c2ccc(C#N)cc2)n2cncn2)cc1 [LETROZOLE],,,inhibition in vivo at 0.1 mg/kg (Rattus norvegicus [1]): 0%; inhibition in vivo at 0.1 mg/kg (Rattus norvegicus [2]): 85%; Activity (Rattus norvegicus [3]): 49 pg/mL
N#Cc1ccc(N(Cc2ccc(OS(N)(=O)=O)c(Br)c2)n2cnnc2)cc1,,,Activity (Rattus norvegicus [5]): Non-toxic
N#Cc1ccc(-c2ccc(O)cc2)cc1Cn1cncn1,,,inhibition at 0.1 µM (Aromatase [6]): 35.1%; inhibition (INH) (Aromatase [7]): 76.4%
N#Cc1ccc(Cn2cncn2)c(-c2ccc(OS(N)(=O)=O)c(Cl)c2)c1,> 10000,1.9,
N#Cc1cc(Cn2cncn2)cc(-c2ccccc2)c1,,29.3,
N#Cc1ccc(-c2ccc(OS(N)(=O)=O)cc2)c(C#N)c1,16.3,,inhibition at 10 µM (Aromatase [8]): 47%
N#Cc1ccc(-c2ccc(OS(N)(=O)=O)cc2)cc1Cn1cncn1,140,176,
CC(C)(C#N)c1cc(Cn2cncn2)cc(-c2ccc(OS(N)(=O)=O)cc2)c1,> 10000,17.5,
CC(C)(C#N)c1cc(Cn2cncn2)cc(-c2ccc(OS(N)(=O)=O)c(Cl)c2)c1,,0.3,inhibition [9]: 68.2%
N#Cc1cc(Cn2cncn2)cc(-c2ccc(OS(N)(=O)=O)c(Cl)c2)c1,6330,80,
Oc1ccc(-c2cccc(Cn3cncn3)c2)cc1Cl,,,inhibition at 0.1 µM (Aromatase [6]): 36.6%; inhibition (INH) (Aromatase [7]): 85.3%
CC(C)(C#N)c1cc(Cn2cncn2)cc(-c2ccc(O)c(Cl)c2)c1,,0.1,
N#Cc1cc(Cn2cncn2)cc(-c2ccc(OS(N)(=O)=O)cc2)c1,> 10000,280,
c1ccc(-c2cccc(Cn3cncn3)c2)cc1,,210,
CC(C)(C#N)c1cc(Cn2cncn2)cc(-c2ccccc2)c1,,0.5,
N#Cc1ccc(-c2ccccc2)cc1Cn1cncn1,,,inhibition at 0.1 µM (Aromatase [6]): 23.9%; inhibition (INH) (Aromatase [7]): 68.8%
CC(C)(C#N)c1cc(Cn2cncn2)cc(-c2ccc(O)cc2)c1,,6,
Oc1ccc(-c2cccc(Cn3cncn3)c2)cc1,,,inhibition at 0.1 µM (Aromatase [6]): 24.6%; inhibition (INH) (Aromatase [7]): 79%
N#Cc1ccc(Cn2cncn2)cc1-c1ccc(O)c(Cl)c1,,,inhibition in vivo at 1 mg/kg (Rattus norvegicus [10]): 11%; plasma estradiol (E2) level (Rattus norvegicus [11]): 297 pg/mL; inhibition in vivo at 1 mg/kg (Rattus norvegicus [12]): 5%
N#Cc1ccc(Cn2cncn2)c(-c2ccccc2)c1,,1.7,
N#Cc1ccc(-c2cccc(OS(N)(=O)=O)c2)cc1Cn1cncn1,> 10000,,"inhibition at 1 µM (Aromatase [7]; JEG-3, human): 63.4%"
N#Cc1ccc(-c2cc(C#N)cc(Cn3cncn3)c2)cc1,,52,
CCCN1C(=O)CC2C3CCc4cc(OS(N)(=O)=O)ccc4C3CC[C@]2(C)C1=O (stereo partly specified),,,inhibition in vivo at 1 mg/kg (Rattus norvegicus [12]): 99%
NS(=O)(=O)Oc1ccc(-c2cccc(Cn3cncn3)c2)cc1Cl,160,70,
NS(=O)(=O)Oc1ccc(-c2cccc(Cn3cncn3)c2)cc1,5500,275,
N#Cc1cc(Cn2cncn2)cc(-c2ccc(F)cc2)c1,,19,

# Second part, led by results:
IC50 (Steryl-sulfatase) [nM],IC50 (Aromatase [4]) [nM],Compound,also measured
> 10000,0.5,CN(C)S(=O)(=O)Oc1ccc(-c2cc(Cn3cncn3)ccc2C#N)cc1,
,920,N#Cc1cc(Cn2cncn2)ccc1-c1ccc(O)cc1,
,14.4,N#Cc1ccc(-c2cccc(O)c2)cc1Cn1cncn1,
32.6,146,N#Cc1ccc(-c2ccc(OS(N)(=O)=O)c(Cl)c2)cc1Cn1cncn1,
> 10000,0.35,N#Cc1ccc(Cn2cncn2)cc1-c1ccc(Cl)c(OS(N)(=O)=O)c1,
,0.8,N#Cc1ccc(Cn2cncn2)c(-c2ccc(O)c(Cl)c2)c1,
,0.22,N#Cc1ccc(Cn2cncn2)cc1-c1ccc(Cl)c(O)c1,
,112,N#Cc1cc(Cn2cncn2)cc(-c2ccc(O)cc2)c1,
,74,N#Cc1ccc(-c2ccc(O)c(Cl)c2)cc1Cn1cncn1,
,0.2,N#Cc1ccc(Cn2cncn2)cc1-c1ccc(O)cc1,inhibition in vivo at 1 mg/kg (Rattus norvegicus [10]): 72%; plasma estradiol (E2) level (Rattus norvegicus [11]): 94 pg/mL; inhibition in vivo at 1 mg/kg (Rattus norvegicus [12]): 10%
> 10000,2.4,CN(C)S(=O)(=O)Oc1ccc(-c2cc(Cn3cncn3)ccc2C#N)cc1Cl,
,4.6,N#Cc1cc(Cn2cncn2)ccc1-c1ccccc1,
,380,N#Cc1cc(Cn2cncn2)ccc1-c1ccc(O)c(Cl)c1,
,24,N#Cc1cc(Cn2cncn2)cc(-c2ccc(O)c(Cl)c2)c1,
28.6,284,N#Cc1cc(Cn2cncn2)ccc1-c1ccc(OS(N)(=O)=O)cc1,
35,2,N#Cc1ccc(Cn2cncn2)cc1-c1ccc(OS(N)(=O)=O)cc1,inhibition in vivo at 1 mg/kg (Rattus norvegicus [10]): 63%; plasma estradiol (E2) level (Rattus norvegicus [11]): 124 pg/mL; inhibition in vivo at 1 mg/kg (Rattus norvegicus [12]): 77%
5.5,,N#Cc1ccc(Cn2cncn2)cc1-c1ccc(OS(N)(=O)=O)c(Cl)c1,Activity (Rattus norvegicus [5]): Non-toxic; inhibition in vivo at 1 mg/kg (Rattus norvegicus [10]): 60%; plasma estradiol (E2) level (Rattus norvegicus [11]): 132 pg/mL; inhibition in vivo at 1 mg/kg (Rattus norvegicus [12]): 92%
,0.2,N#Cc1ccc(Cn2cncn2)cc1-c1ccccc1,
29,571,N#Cc1cc(Cn2cncn2)ccc1-c1ccc(OS(N)(=O)=O)c(Cl)c1,
,0.22,N#Cc1ccc(Cn2cncn2)cc1-c1cccc(Cl)c1,
